# Marks after values point to notes of the source that are not given here.
# Experiments:
# [1] = Oral toxicokinetics in dogs; format: in vivo, beagle dogs
# Experimental: The pharmacokinetic evaluations in mice were adjuncts to the primary pharmacodynamic xenograft studies. The evaluations in rats included toxicokinetic assessments in single-dose, 7-day, and 28-day toxicology studies as well as a mass-balance study after a single oral dose of ^14C-Compound #10. The evaluations in dogs included toxicokinetic assessments in 7-day and 28-day toxicology studies. In the studies performed, rodents were dosed once daily with Compound #10 formulated in vehicle and administered via oral gavage.
# HT1080 xenografts = experiment: HT1080 xenograft dose response: tumor growth; format: in vivo, athymic nude mice; details: 18 days
# Experimental: Experimental Study Design. HT1080 cells (5×10^6 cells/mouse) were implanted subcutaneously in male athymic nude mice.
# Tumor size was measured using calipers at periodic intervals during the study (data shown in Section 9.2.2). […] The study was ended after 18 days, when the vehicle treated tumors reached a mean volume of ˜1755 mm^3. […] Mice were sacrificed, and excised tumors were homogenized in buffer containing protease inhibitors. Both terminal intratumoral and pathologic plasma human VEGF levels were measured using an ELISA that recognizes human VEGF121 and VEGF165 (as described in Section 9.1.1.1). Intratumoral VEGF levels were normalized to the total tumor protein concentration, while pathologic plasma human VEGF levels were expressed in pg/mL of plasma.
# Experimental Design. The experimental design was reported in Section 9.1.2.2.
# [2] = system: human VEGF121 and VEGF165; experiment: HT1080 xenograft time course: pathologic plasma human VEGF; format: in vivo
# Experimental: (§1) Experimental Design. HT1080 cells (5×10^6 cells/mouse) were implanted subcutaneously in male athymic nude mice.
# Tumor size was measured by calipers immediately pre-treatment and at the time of sacrifice on Day 1, 2, or 3 (5 mice per group per day). At sacrifice, the plasma was collected for assay of pathologic human VEGF concentration using an ELISA that recognizes human VEGF121 and VEGF165 (as described in Section 9.1.1.1).
# [3] = system: soluble VEGF121 and VEGF165 isoforms; experiment: ELISA of soluble VEGF121/165 production in HeLa cells during hypoxia or normoxia; format: cell-based, human; details: 48 hours
# Experimental: Experimental Design. HeLa (human cervical carcinoma) cell cultures were established under normoxic conditions (21% oxygen). HeLa cells increase VEGF production 4- to 5-fold in response to hypoxia. […] At the completion of treatment, the conditioned media were collected and the VEGF protein levels were assayed in an enzyme-linked immunosorbent assay (ELISA) with primary antibodies that recognize the soluble VEGF121 and VEGF165 isoforms (R & D Systems, Minneapolis, Minn., USA). To ensure that decreases in VEGF concentration were not due to cytotoxicity, cultures were assayed using a standard assay ([…]-GLO® Luminescent Cell Viability Assay; Promega, Madison, Wis., USA) that measures total cellular adenosine triphosphate (ATP) concentrations as an indicator of cell viability.
# HT1080 cells = experiment: Kinetics of S-phase transit by BrdU incorporation in HT1080 cells; format: cell-based, human
# Experimental: Experimental Design. HT 1080 cells are exposed to BrdU (bromodeoxyuridine, a synthetic nucleoside that is an analogue of thymidine and is incorporated into DNA during the S phase of cell division) (FITC BrdU Flow Kit, BD Pharmingen catalog #552598). Cells are grown and treated as described in Section 9.3.1.3 above with the exception that one hour prior to harvesting by trypsinization, BrdU (final concentration 1 μM) is added to each culture for 1 hour. Cells actively replicating DNA during this brief time incorporate the BrdU into the DNA, which can then be quantitated. BrdU content is quantitated with using the FITC BrdU Flow Kit as instructed by the manufacturer. The process includes fixation (paraformaldehyde) and DNA staining with 7-AAD (7-amino-actinomycin D) followed by incubation with a fluoro-tagged anti-BrdU antibody that specifically recognizes BrdU incorporated into DNA. Dual channel FACS analysis permits assessment of both the DNA content of individual cells and the rate of transit across the S-phase, which is assessed based upon BrdU incorporation over the one hour treatment period.
# [4] = Micronucleus study in rats by the oral route; format: in vivo
# Experimental: Genotoxicity was assessed in a battery of in vitro and in vivo studies that included a bacterial reverse mutation study, a chromosome aberration study in Chinese hamster ovary (CHO) cells, and a micronucleus study in rats by the oral route. The in vitro studies were performed in the presence and absence of an exogenous metabolic activation system.
# [5] = system: soluble VEGF121 and VEGF165 isoforms; experiment: ELISA of soluble VEGF production in nontransformed keratinocytes during hypoxia or normoxia; format: cell-based, human; details: 72 hours
# Experimental: Experimental Design. Nontransformed normal human keratinocyte cell cultures were established under normoxic conditions (21% oxygen). […] At the completion of treatment, cells were assessed for viability with an ATP assay and conditioned media were evaluated for VEGF protein levels by ELISA (as described in Section 9.1.1.1).
# [6] = system: tumor vessels (CD31 endothelial cells); experiment: Intratumoral microvessel density, anti-murine CD31 immunostain, HT1080 xenografts; format: in vivo, athymic nude mice; details: racemic mixture, 5 mg/kg of Compound #10 oral BID, 10 days
# Experimental: as §1
# At the end of treatment, the mice were sacrificed. Excised tumors were assayed by ELISA for VEGF content as described in Section 9.1.1.1, and were sectioned and immunostained with an anti murine CD31 antibody that is specific for endothelial cells.
# [7] = system: HT1080 tumor cells in vivo; experiment: HT1080 xenograft studies of Compound 1205, Compound #10 and Compound 1330: tumor growth; parameters: species or system athymic nude mice; details: Study 24a, 10 mg/kg QD
# Excerpt: Experimental Design. HT1080 cells (5×10^6 cells/mouse) were implanted subcutaneously in male athymic nude mice. […] For comparison, Compound #10 was included in this study.
# [8] = Cardiovascular safety pharmacology in awake telemeterized dogs; format: in vivo, beagle dogs; details: single oral doses of 30, 60, and 120 mg/kg, male dogs
# [9] = ECG and blood pressure assessments in 7-day and 28-day GLP toxicity studies
# [10] = In vitro plasma protein binding of 14C-radiolabeled Compound #10; format: in vitro ADME, mice, rats, dogs, monkeys, and humans; details: mouse, rat, dog, monkey, human, all species, 0.05 to 50 μg/mL, read-out: Plasma protein binding, overall mean
structure (smiles),measurement,setting,value
COc1ccc(C2c3[nH]c4ccc(Cl)cc4c3CCN2C(=O)Oc2ccc(Cl)cc2)cc1 (racemic) [Compound #10],Oral bioavailability,[1],orally bioavailable
same,Toxicity on observing the animals,HT1080 xenografts; HT1080 xenograft mice,no overt toxicity
same,Dose levels at which maximum antitumor activity was observed,HT1080 xenografts; HT1080 xenografts,≥ 1 mg/kg BID
same,Course of pathologic plasma human VEGF concentrations,[2]; Days 2 and 3,continued to decline
same,Pathologic plasma human VEGF levels vs control animals,[2]; by Day 1,numerically lower than in control animals
same,Inhibition of stress-induced VEGF production (FIG. 25),[3]; hypoxia-induced,inhibit stress-induced VEGF production
same,Maximal decrease in VEGF concentration in conditioned media,[3]; hypoxic (1% oxygen),87%
same,Mean VEGF concentration in conditioned media at maximal decrease,[3]; hypoxic (1% oxygen),175 pg/mL
same,Decrease in VEGF concentration in conditioned media,[3]; normoxic,39%
same,Mean VEGF concentration in conditioned media in the presence of compound,[3]; normoxic,157 pg/mL
same,Percentage of cells residing in S-phase,"HT1080 cells; HT1080, 18-hour treatment, increasing doses",net increase
same,BrdU incorporation of individual cells vs DMSO control,"HT1080 cells; HT1080, one-hour BrdU pulse after 18-hour treatment",incorporated less BrdU
same,"Genotoxic effects, micronucleus in rats",[4],no evidence of genotoxic effects
same,Maximal decrease in VEGF concentration in conditioned media,[5]; hypoxic (1% oxygen),57%
same,Mean VEGF concentration in conditioned media at maximal decrease,[5]; hypoxic (1% oxygen),606 pg/mL
same,Decrease in VEGF concentration in conditioned media,[5]; normoxic,21%
same,Mean VEGF concentration in conditioned media in the presence of compound,[5]; normoxic,192 pg/mL
same,Total volume of tumor vessels and diameters of vessels,[6],visibly reduced
same,Tumor vessel count,[6],unchanged
same,Difference vs. vehicle in median number of days to reach 1000 mm^3,[7],8** Days
same,Mean difference in tumor growth rate at the Day that the vehicle-treated tumors taken off study,[7]; Day 11,59%**
same,Final mean terminal tumor size in treatment group,[7]; Xeno,1460 mm^3
same,Changes in cardiovascular or electrocardiographic (including QT interval) parameters,[8],no meaningful changes
same,QTc values vs controls,"[9]; males, 60 mg/kg/day, 28-day study",comparable to controls
same,Increase in mean uncorrected QT value vs controls,"[9]; males, 60 mg/kg/day, end of 28-day dosing",7%
same,Toxicological effects on ECG or blood pressure,[9]; through 120 mg/kg/day for 7-days and through 60 mg/kg/day for 28-days,did not have any toxicological effects
same,fraction unbound,[10],≤ 0.005

# From patent publication US20120157401A1, “METHODS FOR TREATING NEUROFIBROMATOSIS” (PTC Therapeutics, Inc., priority 2009, published 2012)
